The results in this text go back to patent US7989459B2, “Purinones and 1H-imidazopyridinones as PKC-theta inhibitors” (Pharmacopeia, LLC, priority 2006, dated 2011).

In one assay the target is PKC alpha (Homo sapiens, UniProt P17252). Kind of assay: Ki Pan Vera (PV) PKC alpha. It counts as biochemical. As to the method:
[Worded in the source for another target; this target is reported under the same test.] (§1) For Ki Pan Vera (PV) of PKCθ, entries identified with “A” had values below 100 nM; entries identified with “B” had values below 1 μM.

A further assay addresses PKC delta (Homo sapiens, UniProt Q05655). Briefly: Ki Pan Vera (PV) PKC delta. Type of assay: biochemical.
Assay [1] has as its system anti-CD3 induced interleukin-2 (IL-2) production. Briefly: anti-CD3 induced IL-2 production in mice. Type of assay: in vivo. As to the method:
The compounds of the invention were also tested in vivo.

A further assay deals with PKCθ (Homo sapiens, UniProt Q04759). Briefly: Ki Pan Vera (PV) PKCθ. It counts as biochemical. As to the method: as §1
Sequence of PKCθ (Q04759 whole entry): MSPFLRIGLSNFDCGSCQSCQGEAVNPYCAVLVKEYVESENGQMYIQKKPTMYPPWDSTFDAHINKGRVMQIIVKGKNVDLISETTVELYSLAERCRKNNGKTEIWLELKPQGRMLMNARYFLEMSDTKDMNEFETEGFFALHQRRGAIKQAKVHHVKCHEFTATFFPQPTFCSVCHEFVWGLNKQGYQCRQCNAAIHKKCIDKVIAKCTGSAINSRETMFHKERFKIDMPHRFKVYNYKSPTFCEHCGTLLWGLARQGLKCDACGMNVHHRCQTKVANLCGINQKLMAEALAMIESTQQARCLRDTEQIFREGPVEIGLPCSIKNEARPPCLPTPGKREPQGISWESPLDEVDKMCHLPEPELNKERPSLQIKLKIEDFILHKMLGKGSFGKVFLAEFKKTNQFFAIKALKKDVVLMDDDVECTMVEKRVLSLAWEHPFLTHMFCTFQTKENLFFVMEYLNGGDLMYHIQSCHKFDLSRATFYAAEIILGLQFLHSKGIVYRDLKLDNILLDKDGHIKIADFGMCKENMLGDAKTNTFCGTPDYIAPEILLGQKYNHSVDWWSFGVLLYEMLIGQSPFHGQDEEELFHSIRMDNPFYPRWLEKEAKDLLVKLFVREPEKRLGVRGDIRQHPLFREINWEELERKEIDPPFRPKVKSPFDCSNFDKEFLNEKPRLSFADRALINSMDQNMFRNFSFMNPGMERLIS
In a further assay the target is T1, SGK1 (Homo sapiens, UniProt O00141).
T1 sequence (O00141 1-431): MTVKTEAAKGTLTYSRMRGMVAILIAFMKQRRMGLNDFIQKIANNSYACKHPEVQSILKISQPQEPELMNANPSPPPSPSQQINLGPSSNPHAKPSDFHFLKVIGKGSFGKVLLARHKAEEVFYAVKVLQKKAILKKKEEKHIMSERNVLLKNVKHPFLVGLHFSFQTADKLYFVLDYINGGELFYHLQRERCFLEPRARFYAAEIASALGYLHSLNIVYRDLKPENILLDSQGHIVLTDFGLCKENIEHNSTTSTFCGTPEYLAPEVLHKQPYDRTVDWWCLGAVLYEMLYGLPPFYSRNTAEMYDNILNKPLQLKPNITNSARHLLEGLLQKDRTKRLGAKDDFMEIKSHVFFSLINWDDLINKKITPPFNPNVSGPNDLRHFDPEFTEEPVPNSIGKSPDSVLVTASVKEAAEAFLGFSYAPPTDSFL
Briefly: IC50 for kinase SGK (selectivity). It counts as biochemical. On the procedure: Entries identified with “1” had values above 15 nM; entries identified with “2” had values above 100 nM; entries identified with “3” had values above 1 μM; entries identified with “4” had values above 10 μM. In Table 2, “nd” stands for “not determined.”

Sequence of PKC delta (Q05655 whole entry): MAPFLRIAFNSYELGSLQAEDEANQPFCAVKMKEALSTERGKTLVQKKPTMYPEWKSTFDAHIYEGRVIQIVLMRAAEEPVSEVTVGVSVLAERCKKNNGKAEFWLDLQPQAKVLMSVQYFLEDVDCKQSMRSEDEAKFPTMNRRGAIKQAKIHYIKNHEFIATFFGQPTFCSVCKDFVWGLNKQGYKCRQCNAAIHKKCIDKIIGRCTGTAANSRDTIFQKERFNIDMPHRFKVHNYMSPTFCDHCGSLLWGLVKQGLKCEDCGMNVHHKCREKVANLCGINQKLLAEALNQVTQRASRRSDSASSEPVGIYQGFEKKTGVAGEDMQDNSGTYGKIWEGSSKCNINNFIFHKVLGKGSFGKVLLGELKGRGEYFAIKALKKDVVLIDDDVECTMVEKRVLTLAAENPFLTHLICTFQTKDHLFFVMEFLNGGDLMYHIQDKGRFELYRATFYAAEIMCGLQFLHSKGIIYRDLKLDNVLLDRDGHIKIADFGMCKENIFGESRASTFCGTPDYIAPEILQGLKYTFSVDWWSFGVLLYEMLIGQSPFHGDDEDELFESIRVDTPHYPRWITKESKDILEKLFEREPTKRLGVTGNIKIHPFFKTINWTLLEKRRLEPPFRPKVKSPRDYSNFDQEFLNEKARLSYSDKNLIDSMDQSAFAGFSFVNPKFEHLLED

`NCCCNc1ncc2[nH]c(=O)n(Cc3cc(Cl)ccc3Cl)c2n1` [Compound 115]: the Ki is more than 1 µM at PKC alpha, more than 100 nM on PKC delta and less than 100 nM on PKCθ. The “% inhibition of IL-2 production” value in assay [1] (subcutaneous dose 30 mg/kg) is 40%.

For the compound `NCCCNc1ncc2[nH]c(=O)n(Cc3c(Cl)cccc3Cl)c2n1` [Compound 120, 9-(2,6-dichlorobenzyl)-2-(3-aminopropylamino)-7H-purin-8(9H)-one], the Ki is more than 10 µM on PKC alpha, more than 100 nM on PKC delta and less than 100 nM on PKCθ. In assay [1] (subcutaneous dose 30 mg/kg), the “% inhibition of IL-2 production” value is recorded as 40%. Also, the “IC50-SGK1 (nM)” value at SGK1 is recorded as “Inactive”.

With `C=CC[C@@H]1/C=C(\C)C[C@H](C)C[C@H](OC)[C@H]2O[C@@](O)(C(=O)C(=O)N3CCCC[C@H]3C(=O)O[C@H](/C(C)=C/[C@@H]3CC[C@@H](O)[C@H](OC)C3)[C@H](C)[C@@H](O)CC1=O)[C@H](C)C[C@@H]2OC` [FK506, reference compound], the “% inhibition of IL-2 production” value in assay [1] (subcutaneous dose 1 mg/kg) turned out to be 87%.

With `O=c1[nH]c2cnc(NC[C@@H]3CCNC3)nc2n1Cc1c(Cl)cccc1Cl` [Compound 101], the Ki on PKC alpha was more than 1 µM; at PKC delta, more than 15 nM; at PKCθ, less than 100 nM. The “% inhibition of IL-2 production” value in assay [1] (subcutaneous dose 30 mg/kg) was 39%.

Turning to `O=c1[nH]c2cnc(NCC3CCNC3)nc2n1Cc1ccccc1Cl` (stereo not drawn) [Compound 113], the values for the Ki on PKC alpha, on PKC delta and on PKCθ were more than 1 µM, more than 15 nM and less than 100 nM, respectively. Also, the IC50 against SGK1 is more than 10 µM.

As for `O=c1[nH]c2cnc(NC[C@@H]3CCCNC3)nc2n1Cc1ccccc1C(F)(F)F` [Compound 144], the Ki is more than 10 µM at PKC alpha, more than 100 nM on PKC delta and less than 1000 nM on PKCθ. At SGK1, this compound yielded an IC50 of more than 10 µM.

Take `O=c1[nH]c2cnc(NC[C@@H]3CCNC3)nc2n1Cc1cccc(Cl)c1Cl` [Compound 107]: the figures for the Ki on PKC alpha, at PKC delta and at PKCθ were more than 1 µM, more than 15 nM and less than 100 nM, respectively. For the same compound, the “% inhibition of IL-2 production” value in assay [1] (subcutaneous dose 30 mg/kg) was 45%.

On to `NCCCNc1ncc2[nH]c(=O)n(Cc3ccccc3OC(F)(F)F)c2n1` [Compound 139], for which the Ki at PKC alpha is more than 10 µM; at PKC delta, more than 1000 nM; at PKCθ, less than 1000 nM. The “IC50-SGK1 (nM)” value at SGK1 is listed as “Inactive”.

Take `O=c1[nH]c2cnc(NC[C@H]3CCCNC3)nc2n1Cc1ccccc1C(F)(F)F` [Compound 142]: the inhibitory constant (Ki) is more than 10 µM on PKC alpha, more than 100 nM at PKC delta and less than 1000 nM at PKCθ. This compound also gave an IC50 at SGK1 of more than 10 µM.

In the case of `O=c1[nH]c2cnc(NCC3CCNCC3)nc2n1Cc1ccccc1Br` [Compound 201], the Ki was more than 1 µM at PKC alpha, more than 100 nM at PKC delta and less than 1000 nM on PKCθ. This compound also came in with an IC50 against SGK1 of more than 10 µM.

Take `O=c1[nH]c2cnc(NCC3CCNC3)nc2n1Cc1c(F)cccc1F` (stereo not drawn) [Compound 119]: the Ki at PKC alpha was more than 10 µM; on PKC delta it was more than 100 nM; at PKCθ, less than 100 nM. The “IC50-SGK1 (nM)” value at SGK1 is “Inactive”.
